Data taken from patent US20230293735A1, “OXINE-CONTAINING CELL RADIOLABELLING AGENTS” (priority 2020, published 2023).

Key:
eosinophils = conditions: ref. [31]; cited from earlier work
WBCs = test: In vitro chemotaxis assay of radiolabelled WBC towards fMLP; format: cell-based, human; conditions: vs ^111In-oxine and unlabelled control cells
Experimental: FIG. 17. Chemotaxis of radiolabelled WBC. Cells were incubated with ^89Zr-oxine, ^111In-oxine, or vehicle only. The chemotaxis index is the number of cells migrating towards 10 nM fMLP divided by the number of cells migrating towards vehicle, averaged from triplicates for each sample. Each point represents one donor. Bars represent the mean ± SD of n = 9, 10 and 10 individual samples. p≥0.05.
The functionality of WBCs radiolabelled as in Example 8 was tested using an in vitro chemotaxis assay, where the number of WBCs migrating in response to the neutrophil chemoattractant N-formyl-Met-Leu-Phe (fMLP) was measured.
After radiolabelling, red blood cells (RBCs) were removed from the cell pellets hypotonic lysis. Cells were resuspended in 4.5 mL cold H2O for 30 s, after which isotonicity was restored by addition of 0.5 mL 10x PBS. Lysed RBC were removed by centrifugation and the remaining WBC were resuspended in assay medium at 3.5×10^6 cells/mL. […] The top wells were emptied, the plate was centrifuged at 150 g for 5 min to detach the cells from the membrane and the cells in the bottom wells were counted using a haemocytometer. The chemotaxis index (CI) was calculated by dividing the number of WBC in the wells containing fMLP by the number of WBC in the wells containing medium only.

WBC populations = test: Relative activity per cell in FACS-sorted WBC populations, gamma-counted; format: cell-based, human; conditions: flow-assisted cell sorting
Experimental: FIG. 18. Relative activity per cell of ^89Zr in WBC populations after labelling of mixed WBC with ^89Zr-oxine. Radiolabelled WBC were sorted by FACS and gamma-counted. Each point represents cells from an individual donor.
To determine whether certain subtypes of WBC had preferential uptake of ^89Zr-oxine, radiolabelled WBC were stained with fluorescent monoclonal antibodies, automatically sorted and gamma-counted. ^89Zr-radiolabelled WBC were stained (15 min at 4° C.) with a combination of CD45-APC-Vio770 (#130-110-773), CD3-PE (REA613, #130-113-701), CD14-APC (#130-110-578), CD19-PE-Vio770 (REA675, #130-114-173) and CD16-FITC (REA423, #130-113-954) antibodies to sort samples into neutrophils, eosinophils, monocytes, T cells and B cells, or CD45-APC-Vio770, […] (REA175, #130-117-800) and CD41a-PE (REA386, #130-121-429) to sort red blood cells and platelets. Compensation settings were adjusted using beads (anti-REA MACS® Comp, #130-104-693). Samples were analysed and sorted on a FACSMelody instrument (BD Biosciences) equipped with blue (488 nm), yellow-green ([…]) and red (633 nm) lasers. For each cell type, a fixed number of events was collected, and the fractions were gamma-counted to determine the amount of activity per cell.

Extracellular vesicles = test: Radiolabelling efficiency of extracellular vesicles; conditions: EVs from B16-F10.GFP, MDA-MB-231.CD63-GFP, PANC1, 4T1 and 2D/3D MSC cultures
Experimental: FIG. 23. Use of the kit formulation to radiolabel extracellular vesicles (EVs) for imaging purposes.
Extracellular vesicles are isolated by any suitable method (e.g. by density gradient centrifugation). Extracellular vesicles (e.g. 1×10^10 to 1×10^11 vesicles) in 160 µL PBS were incubated with 20 µL ^89Zr-oxine or unchelated ^89Zr for 20 min at 37° C. with frequent shaking, followed by addition of 100 µL 1% deferoxamine in PBS to trap any unbound ^89Zr. Radiolabelled EVs were purified from unchelated radiotracer by size-exclusion chromatography (SEC) using cross-linked agarose resin (e.g. Sepharose CL-2B, GE Healthcare) in plastic columns. The reaction mixture was loaded onto the column followed by 200 µL PBS and eluted with 700-800 µL PBS. Radioactivity of the eluate and the column was measured using gamma counting to calculate labelling efficiency. The labelling efficiency of EVs obtained from B16-F10.GFP, MDA-MB-231.CD63-GFP, PANC1 and 4T1 cell lines and from 2D and 3D cultures of mesenchymal stem cells (MSC) B with ^89Zr-oxine ranged from 5.4 ± 3.2% for 2D-culture derived MSC-EVs to 27.6 ± 6.5% for 4T1 EVs (FIG. 23).

WBC = test: Viability of radiolabelled cells, Trypan Blue dye exclusion; format: cell-based, human
Experimental: FIG. 16. WBC radiolabelling with ^89Zr-oxine and ^111In-oxine. Percentage of viable ^89Zr- and ^111n-labelled WBC after 4 h and 24 h, measured using the Trypan blue assay. Mean ± SD of n=6 per group, Student’s two-tailed paired t-test. ns: not significant (p≥0.05).
Viability was assessed by microscopy using the Trypan Blue dye exclusion method. Cell viability after radiolabelling with ^89Zr-oxine was 99.4±0.3% immediately after labelling, 97.0±2.3% after 4 h and 92.6±4.8% after 24 h (FIG. 16).

[1] = Activity recovery from vial (gamma-counting of aliquots); format: physicochemical; conditions: for added ^89Zr activity recoverable: formulation with 5% EtOH
Experimental: FIG. 9. Recovery of ^89Zr-oxine complexes from the reaction vial over time. The figure compares formulations containing 8-hydroxyquinoline, HEPES and NaOH only (dots), and additional 5% EtOH (squares) or 1 mg/mL polysorbate 80 (diamonds). ^89Zr-oxalate was added to 100 µL of the formulation of the invention in a glass vial and left at room temperature for up to 1 week. 10 µL aliquots were removed from the glass vial immediately after addition (0 min) and after 15 min, 30 min, 1, 2, 24, 48, 72 and 168 h, then gamma-counted at the end of the experiment. The recovered activity is expressed as the activity in the aliquot at the indicated time as a percentage of the activity sampled immediately after addition of ^89Zr to the-formulation of the invention. Mean±SD, N=3.
FIG. 10. Recovery of ^89Zr-oxine complexes from the reaction vial over time as a function of the amount of polysorbate 80. […] 10 µL aliquots were removed from the glass vial immediately after addition (0 min) and after 15 min, 30 min, 1, 2, 24, 48, 72 and 168 h, then gamma-counted at the end of the experiment. The recovered activity is expressed as the activity in the aliquot at the indicated time as a percentage of the activity sampled immediately after addition of ^89Zr to the formulation of the invention. […]
The stability of the compositions described herein can be assessed, for example, in terms of their recovered activity. The recovered activity is expressed as the percentage of activity (i.e. radioactivity, as assessed by gamma-counting) in a sample at the time of measurement, relative to the activity sampled immediately after addition of the radioactive metal containing solution to the oxine formulation described herein. […]
Activity recovery from vial: ^89Zr was added to 100 µL of the formulation. […] The aliquots were gamma-counted on day 7 after addition of ^89Zr. The percentage of activity recovered from the vial was determined as the counts in each sample divided by the counts in the reference sample.

Human WBCs = test: Radiolabel retention in radiolabelled WBC in autologous cell free plasma; format: cell-based; conditions: p>0.05, n=10
Experimental: Human WBCs from 10 healthy donors were radiolabelled with ^89Zr-oxine and ^111In-oxine as described in Example 8 and an intra-individual comparison of labelling with ^89Zr-oxine and ^111In-oxine was performed. Labelling efficiency was determined as described in Example 7. For radiolabel retention studies, radiolabelled WBC were suspended in autologous CFP (cell free plasma), in triplicate in a 24-well plate and incubated at 37° C. Cells were collected after 4 h or 24 h, diluted with PBS, centrifuged at 200 g for 10 min, and supernatants and pellets were measured in a dose calibrator to determine retention using the same formula as for labelling efficiency. The labelling efficiency of WBCs with ^89Zr-oxine was 48.7±6.3%, vs 89.1±9.5 (p<0.0001, n=10) for ^111In-oxine (FIG. 14). Cellular retention of ^89Zr was 91.4±1.4% after 4 h incubation in autologous CFP and 86.6±2.9% after 24 h (FIG. 15). […] The labelling of WBC with ^89Zr-oxine was reliable, consistently achieving 45-50% labelling efficiency with 160-480 million cells.

C/C(=N\[O-])[C@@H](C)[N-]CC(C)(C)C[N-][C@H](C)/C(C)=N/O.[O]=[99Tc+3] (racemic) [^99mTc-HMPAO]
preferential accumulation in leucocyte subtype (eosinophils): accumulated preferentially in eosinophils

c1cnc2c([O][89Zr]([O]c3cccc4cccnc34)([O]c3cccc4cccnc34)[O]c3cccc4cccnc34)cccc2c1 [^89Zr-oxine]
chemotactic properties of labelled WBC (WBCs): retained their chemotactic properties
preferential uptake by leukocyte populations (WBC populations): no preferential uptake by any specific leukocyte population
uptake in RBCs and platelets (WBC populations): significant uptake
labelling efficiency of EVs compared to unchelated ^89Zr (Extracellular vesicles): higher labelling efficiency
cell viability after radiolabelling (WBC; after 4 h): 97.0±2.3%
cell viability after radiolabelling (WBC; after 24 h): 92.6±4.8%
cell viability after radiolabelling (WBC; immediately after labelling): 99.4±0.3%
added activity recoverable from the vial ([1]; 1 M HEPES buffer (pH 7.9), no surfactant or organic solvent, glass vessel, 15 min after addition of ^89Zr): 46%
added ^89Zr activity recoverable ([1]; after 1 h): 46%
added ^89Zr activity recoverable ([1]; after 24 h): less than 6%

c1cnc2c([O][111In]([O]c3cccc4cccnc34)[O]c3cccc4cccnc34)cccc2c1 [^111In-oxine, reference compound]
viability compared with ^89Zr-oxine (WBC; p>0.05, n=6-10): no significant differences
radiolabelling agent retention compared with ^89Zr-oxine (Human WBCs): no significant differences
